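48-hour exposure; five concentrations; linearly interpolated endpoints. At the GI50, growth is halved.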 Active and inactive are the calls of the source. Rule as the data show it: active = GI50 up to about 1.1 µM and inactive = higher.
Assays:
Test in all cases: NCI anticancer screen, dose series, 48 h
HCT-15 = tested on: HCT-15
OVCAR-3 = tested on: OVCAR-3
M14 = tested on: M14
SR = tested on: SR
M19-MEL = tested on: M19-MEL
COLO 205 = tested on: COLO 205
DLD-1 = tested on: DLD-1
KM12 = tested on: KM12
HOP-92 = tested on: HOP-92
SNB-19 = tested on: SNB-19
CAKI-1 = tested on: CAKI-1
RPMI-8226 = tested on: RPMI-8226
XF498 = tested on: XF498
UACC-62 = tested on: UACC-62
TK-10 = tested on: TK-10
CCRF-CEM = tested on: CCRF-CEM
SF-268 = tested on: SF-268
SK-OV-3 = tested on: SK-OV-3
KM-20L2 = tested on: KM-20L2
HL-60 = tested on: HL-60
HT-29 = tested on: HT-29
K562 = tested on: K562
LXFL 529 = tested on: LXFL 529
NCI-H522 = tested on: NCI-H522
A549 = tested on: A549
UO-31 = tested on: UO-31
HCC 2998 = tested on: HCC 2998
OVCAR-4 = tested on: OVCAR-4
SNB-75 = tested on: SNB-75
IGROV-1 = tested on: IGROV-1
SN12C = tested on: SN12C
U-251 = tested on: U-251
A498 = tested on: A498
ACHN = tested on: ACHN
NCI-H226 = tested on: NCI-H226
OVCAR-8 = tested on: OVCAR-8
RXF 393 = tested on: RXF 393
RXF 631 = tested on: RXF 631
OVCAR-5 = tested on: OVCAR-5
NCI-H460 = tested on: NCI-H460
NCI-H23 = tested on: NCI-H23
EKVX = tested on: EKVX
HOP-62 = tested on: HOP-62
UACC-257 = tested on: UACC-257
DMS-273 = tested on: DMS-273
HOP-18 = tested on: HOP-18
786-0 = tested on: 786-0
MOLT-4 = tested on: MOLT-4
HCT-116 = tested on: HCT-116
DMS-114 = tested on: DMS-114
LOX IMVI = tested on: LOX IMVI
SNB-78 = tested on: SNB-78
Malme-3M = tested on: Malme-3M
SW-620 = tested on: SW-620

## O=C(Nc1cccc(C(F)(F)F)c1)C(=O)C(C(=O)c1ccc(Cl)c(Cl)c1)C1OC(=O)c2ccccc21 (centres undefined)
HCT-15
  GI50: 35 µM
OVCAR-3
  GI50: 32.1 µM (inactive)
M14
  GI50: 81.1 µM (inactive)
SR
  GI50: 15.4 µM (inactive)
M19-MEL
  GI50: 18.8 µM (inactive)
COLO 205
  GI50: 41.2 µM (inactive)
DLD-1
  GI50: 41.9 µM (inactive)
KM12
  GI50: 47.2 µM (inactive)
HOP-92
  GI50: 26.8 µM (inactive)
SNB-19
  GI50: 37.8 µM (inactive)
CAKI-1
  GI50: 88.1 µM (inactive)
RPMI-8226
  GI50: 56 µM (inactive)
XF498
  GI50: > 100 µM (inactive)
UACC-62
  GI50: 28.6 µM (inactive)
TK-10
  GI50: > 100 µM (inactive)
CCRF-CEM
  GI50: 28.4 µM (inactive)
SF-268
  GI50: 37.9 µM (inactive)
SK-OV-3
  GI50: > 100 µM (inactive)
KM-20L2
  GI50: 39.4 µM (inactive)
HL-60
  GI50: 29.4 µM (inactive)
HT-29
  GI50: 29.2 µM (inactive)
K562
  GI50: 44 µM (inactive)
LXFL 529
  GI50: 28.7 µM (inactive)
NCI-H522
  GI50: 28.8 µM (inactive)
A549
  GI50: 44.2 µM (inactive)
UO-31
  GI50: 55.1 µM (inactive)
HCC 2998
  GI50: 28.5 µM (inactive)
OVCAR-4
  GI50: 40 µM (inactive)
SNB-75
  GI50: 22.7 µM (inactive)
IGROV-1
  GI50: 39.6 µM (inactive)
SN12C
  GI50: 36.6 µM (inactive)
U-251
  GI50: 23.1 µM (inactive)
A498
  GI50: 21.4 µM (inactive)
ACHN
  GI50: 53.2 µM (inactive)
NCI-H226
  GI50: 19.9 µM (inactive)
OVCAR-8
  GI50: 26.5 µM (inactive)
RXF 393
  GI50: 14.7 µM (inactive)
RXF 631
  GI50: 39.3 µM (inactive)
OVCAR-5
  GI50: 62.4 µM (inactive)
NCI-H460
  GI50: 31.8 µM (inactive)
NCI-H23
  GI50: 27.4 µM (inactive)
EKVX
  GI50: 79.1 µM (inactive)
HOP-62
  GI50: 28.3 µM (inactive)
UACC-257
  GI50: 51.8 µM (inactive)
DMS-273
  GI50: 33.9 µM (inactive)
HOP-18
  GI50: 17.5 µM (inactive)
786-0
  GI50: 37.7 µM (inactive)
MOLT-4
  GI50: 48.9 µM (inactive)
HCT-116
  GI50: 17.5 µM (inactive)
DMS-114
  GI50: 21.6 µM (inactive)
LOX IMVI
  GI50: 27.3 µM (inactive)
SNB-78
  GI50: 32.4 µM (inactive)
Malme-3M
  GI50: 15.6 µM (inactive)
SW-620
  GI50: 38.1 µM (inactive)

Source: ChEMBL document CHEMBL1201862, “PubChem BioAssay data set” (2004)
